Experimental findings from patent US20070010458A1, “Drugs for the arthritis treatment” (priority 2002, published 2007) are described below.

Series [1] deals with TGFβ1 production in cellular chondrocyte cultures. Briefly: Stimulation of TGFβ1 production in chondrocyte cultures (CCL-64 growth inhibition bioassay of conditioned medium). The class given is cell-based. To be noted: calf chondrocyte primary cultures, compound 10^−5 M, 24 hours; untreated control = 100. As to the method: The primary cultures have been kept in a DMEM culture medium (Dulbecco's modified Eagle medium) (high glucose) containing bovine fetal serum (10% vol.) and antibiotics at 37° C. and in air/CO2 atmosphere (95%/5% vol.) until reaching the culture confluence. A cell sample is kept as a control and not treated with the tested compounds.
At the end the cells have been washed 3 times with a medium free from serum and added with BSA (bovine serum albumin, 200 μg/ml) for 5, 30 and 60 minutes respectively and then incubated in a medium devoid of serum (1 ml) for further 6 hours. The conditioned medium has been collected, centrifuged and kept at −70° C. until the use.
Before the experiment, 0.5 ml of cellular culture supernatant have been acidified with HCl (0.1 ml, 1 N) and incubated at room temperature for 10 min, then neutralized with NaOH/HEPES (0.1 ml NaOH 1.2N/0.5 M).
CCL-64 cellular cultures lines in a proliferative state have been prepared as described in Jennings J. C., J. Cell. Physiol.
At the twentieth hour ^3H-timidine (0.5 μCi/ml), a cellular proliferation marker, which is incorporated in the DNA of the new cells has been added to the cultures. The cultures have then been incubated for 4 hours.
At the end the cells have been cold fixed (5° C.) with trichloroacetic acid 5% v/v, washed with the same solution and dissolved in NaOH (0.1 N). […] From the amount of incorporated timidine it is shown the amount of TGF-β1. The data reported in Table 1 are expressed in percentage of TGFβ1 produced in the samples treated with the tested compounds, compared with the untreated control.

The test system of series [2] is IL-6 release in mouse spleen lymphocytes. Briefly: IL-6 release in mouse spleen lymphocytes (in vitro, ELISA). The series is classed as cell-based. To be noted: 10 μg/ml endotoxin, compound 50 μM, 24 hours, placebo = 100. As to the method: (§1) Spleen lymphocytes were prepared as it follows. Mice were killed by an overdose of ether, and spleens were collected and maintained in a sterile RPMI medium (Sigma-Aldrich) containing 0.5% (vol/vol) L-glutamine and 0.5% (vol/vol) sterile endotoxin-free fetal calf serum (FCS). The spleens were opened and the content (whole cells) collected and diluted with RPMI.
(§2) After repeated washings, cells were suspended in 10 ml of RPMI containing 1% (vol/vol) streptomycin and 1% (vol/vol) penicillin. The suspension was then incubated at 37° C. for 24 hours, in an O2/CO2 atmosphere (95%/5% v/v). Monocytes were eliminated by adhesion, and lysis of red cells was obtained by suspension in a solution 0.15 mol/liter NH4Cl and 1 mmol/liter KHCO3. The resulting lymphocytes were resuspended in RPMI-FCS, incubated for 30 minutes at 37° C. with anti-FAS, anti-FASL, or anti-IL2 receptor monoclonal antibodies, and then washed twice with RPMI-FCS. Cells were then incubated with the FITC-conjugated secondary antibody for 30 mins at 4° C., washed twice, and resuspended in PBS/formaldehyde (0.5%). Control samples were treated with the FITC-conjugated secondary antibody only. Stained cells were analysed on a flow cytofluorimeter. Cells were gated using forward vs side scatter to exclude dead cells and debris.
(§3) Cells were transferred in plate and then 10 μg/ml endotoxin and each of the following compounds at a concentration of 50 μM added: • Placebo (no compound added); • Flurbiprofen; • NO-Flurbiprofen; the compound was prepared as described in ex. F1, above; • Indomethacin; • NO-indomethacin; the compound was prepared as described in the example on page 45 of WO 98/09948; • then it was incubated for 24 hours • IL-6 and TGF-β released in cell supernatant was measured by ELISA assay, taking as 100% release that of placebo group.
(In an ELISA, binding on a coated surface is turned into a signal by an enzyme label.)

Another series has as its system human chondrocytes. The experiment in a line: Cell proliferation of TNFα-treated human chondrocytes ([3H]-thymidine incorporation). The class given is cell-based. The settings on record: TNFα 80 ng/ml, compound 100 μM, 24 hours, control without TNFα = 100, vehicle + TNFα = 50. As to the method: (§4) Human chondrocytes were isolated by collagenase digestion from knee cartilage collected from patients undergoing knee replacement surgery. Only primary culture was used to avoid phenotype change of human chondrocytes. TNFα (80 ng/ml) was added to all but control cells. Test compounds were dissolved at a concentration 0.02% (w/v) in DMSO (vehicle).
(§5) The test compounds were incubated with cells at a 100 μM concentration for 24 hours.
Cell proliferation was determined by measuring [^3H]-thymidine incorporated into newly synthesized DNA. Cell viability was assessed by MTS assay kit.
In general terms: Uptake of a labelled nucleoside into DNA is a usual measure of proliferation.

For a further series, the system named is type II collagen mRNA. Briefly: Type II collagen mRNA steady-state levels in human articular chondrocytes. To be noted: human articular chondrocytes in hypoxia (5% v/v O2), with or without IL-1β, compound 10^−5M, 48 h. The series is classed as cell-based. As to the method: The steady-state levels of mRNA for type II collagen and TGF-β type II receptor (TβRII) was evaluated in human articular chondrocytes (HAC), cultured in hypoxia (5% v/v O2). The cells were treated or not with interleukin-1β (IL-1β) an agent favouring OA pathology, and NO-NSAIDs, or the corresponding NSAIDs at 10^−5M for 48 h.

Series [3] concerns proteoglycan synthesis in human chondrocytes. Briefly: Proteoglycan synthesis in TNFα-treated human chondrocytes ([35S]-sulfate incorporation). The series is classed as cell-based. The settings on record: TNFα 80 ng/ml, compound 100 μM, 24 hours, control without TNFα = 100, vehicle + TNFα = 22. The procedure: as §4, §5
Proteoglycan synthesis was determined by [^35S]-sulfate incorporation. Cells and supernatant were extracted with 4M guanidinium chloride and purified by Sephadex colums chromatography. The amount of [^35S]-sulfate was measured by liquid scintillation counter. Results were normalized by the amount of Dna in the sample and expressed as CPM/μg DNA (CPM=count per minute).

In series [4] the test system is IL-6 release in human monocytes. The experiment in a line: IL-6 release in human monocytes (ex-vivo study after oral subacute treatment). To be noted: healthy subjects, 100 mg twice a day oral for seven days; monocytes 4 hours after last treatment, 10 μg/ml endotoxin 24 hours, ELISA; placebo = 100. The procedure:
Twenty-four healthy subjects of both sexes were enrolled and randomised into three groups of 8 subjects each. Each group was administered as it follows: • placebo: vehicle (0.5% aqueous suspension of carboxymethyl cellulose); • flurbiprofen: 100 mg twice a day; • NO-flurbiprofen: 100 mg twice a day; the compound was prepared as described in example F1. The treatment lasted seven consecutive days (oral subacute treatment).
Monocytes from whole blood samples obtained before and 4 hours after the last treatment were prepared. Monocytes were extracted by positive selection using paramagnetic beads loaded with anti-CD11 antibody. Cells were then incubated with 10 μg/ml endotoxin for 24 hours, and IL-6 released in cell supernatant measured by ELISA assay.
Results are given as % in the confront of IL-6 release obtained in the placebo group.

For series [5], the system named is TGF-β release in mouse spleen lymphocytes. Briefly: TGF-β release in mouse spleen lymphocytes (in vitro, ELISA). The class given is cell-based. To be noted: 10 μg/ml endotoxin, compound 50 μM, 24 hours, placebo = 100. As to the method:
as §1, §2, §3

A short description of series [6]: Hepatic tolerability in rats (plasma AST, ALT, bilirubin). The series is classed as in vivo. To be noted: i.p., NO-paracetamol 1.4 g/Kg or paracetamol 1.16 g/Kg, plasma 6 hours after administration, % of control group (100%). The procedure:
Groups of No. 10 rats have been treated i.p. with NO-paracetamol (1.4 g/Kg i.p.) or with paracetamol (1.16 g/Kg) or with the carrier (0.9% w/v NaCl containing 20% v/v di tween-20) (control group).
After 6 hours from the administration, the animals have been sacrificed, the blood has been collected and the plasma analyzed to determine the aspartate aminotransferase (AST) and alanine aminotransferase (ALT) and bilirubin concentrations. The results are reported in Table 2 and have been expressed in pecentage with respect to the values obtained in the control group (100%).

Regarding `CC(=O)Oc1ccccc1C(=O)O` [Aspirin], the “% of produced TGFβ1” value in series [1] was 150%.

`CC(C(=O)O)c1ccc(-c2ccccc2)c(F)c1` (stereo not drawn) [Flurbiprofen]: the “IL-6 release % in the confront of placebo” value (“IL-6 release %” for short) in series [2] and in series [4] was 100% throughout. In addition, the “Cell proliferation % in the confront of control” value in the series with human chondrocytes amounted to 53%. For the same compound, the “Increase of type II collagen mRNA levels” value in the series on type II collagen mRNA is on record as “no significant effect”. Further, in series [3], the “Proteoglycan synthesis % in the confront of control” value (“Proteoglycan synthesis %” for short) is 26%. The “TGF-β release % in the confront of placebo” value (shortened to “TGF-β release %”) in series [5] came to 115%. Moreover, the “% of produced TGFβ1” value in series [1] is reported as 120%.

As for `CC(C)Cc1ccc(C(C)C(=O)O)cc1` (stereo not drawn) [Ibuprofen], in the series with human chondrocytes, the “Cell proliferation % in the confront of control” value is given as 48%. The “Proteoglycan synthesis %” value in series [3] is 24%.

As for `COc1ccc2c(c1)c(CC(=O)O)c(C)n2C(=O)c1ccc(Cl)cc1` [Indomethacin], the “IL-6 release %” value in series [2] came to 90%. Moreover, the “TGF-β release %” value in series [5] is reported as 70%.

For the compound `CC(=O)Oc1ccccc1C(=O)Oc1cccc(CO[N+](=O)[O-])c1` [NO-Aspirin, 2-acetyloxybenzoic acid 3-nitrooxymethyl phenyl ester], the “% of produced TGFβ1” value in series [1] came to 600%.

As for `O=C(Cc1ccccc1Nc1c(Cl)cccc1Cl)OCCCCO[N+](=O)[O-]` [NO-Diclofenac, 2-[(2,6-dichlorophenyl)amino]benzenacetic acid 4-nitrooxybutyl ester], the “% of produced TGFβ1” value in series [1] is 550%.

Consider `CC(C(=O)OCCCCO[N+](=O)[O-])c1ccc(-c2ccccc2)c(F)c1` (stereo not drawn) [NO-Flurbiprofen, 2-fluoro-alpha-methyl[1,1′-biphenyl]-4-acetic acid 4-nitrooxybutylester], for which the “IL-6 release %” value in series [2] was 10%. Besides, the “Increase of type II collagen mRNA levels” value with type II collagen mRNA was “more than 100%”. In series [3], the “Proteoglycan synthesis %” value was 70%. For the same compound, the “TGF-β release %” value in series [5] was determined as 150%. Further, in series [1], the “% of produced TGFβ1” value was determined as 650%.

Regarding `CC(=O)Nc1ccc(OC(=O)CCCO[N+](=O)[O-])cc1` [NO-Paracetamol, 4-nitrooxybutanoic acid 4-acetylaminophenylester], in series [6], the AST came to 160% and the Bilirubin is 136%. For the same compound, the “% of produced TGFβ1” value in series [1] is 350%.

Turning to `COc1ccc2c(c1)c(CC(=O)Oc1cccc(CO[N+](=O)[O-])c1)c(C)n2C(=O)c1ccc(Cl)cc1` [NO-indomethacin, 1-(4-Chlorobenzoyl)-5-methoxy-2-methyl-1H-indole-3-acetic acid 3-(nitrooxymethyl)phenyl ester], the “IL-6 release %” value in series [2] is 20%. In series [5], the “TGF-β release %” value is on record as 130%.

Regarding `CC(=O)Nc1ccc(O)cc1` [Paracetamol], in series [6], the ALT turned out to be 171%, the AST turned out to be 330% and the Bilirubin was determined as 200%.
